Laboratory results: patent US20110028513A1, “METHOD FOR TREATING NEUROLOGICAL DISORDERS WITH IMIDAZOLIUM AND IMIDAZOLINIUM COMPOUNDS” (priority 2008, published 2011)
Entries after “also recorded” stand apart in the source; their conditions may differ.

Tests used:
[1] = tested on: transgenic GFAP-GFP mice; test: In vivo retinal imaging (scanning laser ophthalmoscope) of GFP fluorescence in the optic disc of 2′-CH3-MPTP-treated mice
Method: (§1) The generation and genotyping of the transgenic GFAP (glial fibrillary acidic protein)-GFP (green fluorescent protein) mice were performed as previously described (Zhuo et al., 1997, See PCT Application No. PCT/SG2008/000159). Adult mice (8-10 weeks old) in the Friend virus B-Type (FVB/N) background were used in this study. Animal husbandry was provided by the Biological Resource Center (BRC) of Biopolis, Singapore. The experimental protocol for this study was approved by the Institutional Animal Care and Use Committee at BRC.
The synthesis of DBZIM has been described. (See PCT Application No. SG2009/000037, Zhang et al., 2007). The structure of DBZIM is illustrated in FIG. 1. […] The dosing regime is illustrated in FIG. 2. Mice in the DBZIM/neurotoxicant-treated group received an intraperitoneal (ip) injection of DBZIM (25 mg/kg in saline) 24 h before and after administering 4 ip injections of 2′-CH3-MPTP (15 mg/kg in saline; once every 2 h). Mice in the neurotoxicant-treated group were injected with 2′-CH3-MPTP only (4×15 mg/kg in saline; ip; once every 2 h). For each mouse in the DBZIM/neurotoxicant-treated group (n=5) and neurotoxicant-treated group (n=5), saline was used as a vehicle for the control group (n=6). Retinal imaging was performed before and after treatment.
Mice were anesthetized by ip injections with 0.15 ml/10 g body weight of Avertin (1.5% 2,2,2-tribromoethanol; T48402) purchased from Sigma-Aldrich (St. Louis, Mo., USA). Their pupils were dilated with a drop of 0.5% Cyclogyl® sterile ophthalmic solution (cyclopentolate hydrochloride, Alcon®, Puurs, Belgium). Custom-made polymethylmethacrylate (PMMA) hard contact lenses (Cantor & Nissel, Northamptonshire, UK) were used to avoid dehydration of the cornea. Careful examination by an eye specialist before scanning laser ophthalmoscope (SLO) imaging ruled out the presence of any corneal or lens opacity.
The second version of Heidelberg Retina Angiograph (HRA II) SLO (Heidelberg Engineering, Dossenheim, Germany) was modified for use on mice. SLO is an imaging technique based on the scanning of the fundus with a laser beam from a point source; the reflected light is detected by a photomultiplier. The incident and reflected light beams follow a co-axial path. Therefore, more light can pass through small eyes with SLO than with conventional fundus cameras. […]
Unlike magnetic resonance images (MRI) and in vitro fluorescent-labeled cell images, the in vivo fluorescence images of transgenic GFAP-GFP expression in the mouse retina have very low signal-to-noise ratio (SNR), which makes the quantitative analysis of the transgene expression difficult. […]

[2] = tested on: transgenic GFAP-GFP mice; test: Retinal whole-mount and cross-section immunohistochemistry (GFP/GFAP) for 2′-CH3-MPTP-induced gliosis; assay type: in vivo; conditions: DBZIM 25 mg/kg ip plus 2′-CH3-MPTP
Method: as §1
(§2) The synthesis of DBZIM has been described. (See PCT Application No. SG2009/000037, Zhang et al., 2007). The structure of DBZIM is illustrated in FIG. 1. […] The dosing regime is illustrated in FIG. 2. Mice in the DBZIM/neurotoxicant-treated group received an intraperitoneal (ip) injection of DBZIM (25 mg/kg in saline) 24 h before and after administering 4 ip injections of 2′-CH3-MPTP (15 mg/kg in saline; once every 2 h). […]
(§3) After perfusion with 1× PBS, followed by 4% fresh paraformaldehyde (in 1× PBS, pH 7.4), the mouse brains were harvested and the eyes enucleated. […] The retinas, free of the choroid and sclera tissues, were whole-mounted on a glass slide with Vectorshield mounting medium for fluorescence (Vector Laboratories, Inc., Burlingame, Calif., USA; H1000). […]

[3] = tested on: transgenic GFAP-GFP mice; test: Brain cryosection immunohistochemistry (GFP/TH) of striatum and SNpc after 2′-CH3-MPTP; assay type: in vivo; conditions: DBZIM 25 mg/kg ip plus 2′-CH3-MPTP
Method: as §1, §2, §3

Row | Compound | fluorescence intensity (FI) in the optic disc over saline control, in words ([1]; 2′-CH3-MPTP alone, 4 x 15 mg/kg ip, P<0.05, FIG. 4) | increase in GFP fluorescence of the optic disc ([1]; neurotoxicant alone, 4 x 15 mg/kg ip once every 2 h, versus saline control, FIG. 4) [%] | gliosis in retinal whole-mounts (GFP green and GFAP red fluorescence, nerve fiber layer) ([2]; FIG. 5) | gliosis in retinal astrocytes and Müller cells (retinal cross-sections) ([2]; FIG. 6) | change in GFP fluorescence (fluorescence intensity) of the optic disc versus saline control ([1]; DBZIM 25 mg/kg ip 24 h before and after 4 x 15 mg/kg ip 2′-CH3-MPTP, quantified by algorithm, FIG. 4, day 4) | apparent retinal neurotoxicity in composite retinal images ([1]; DBZIM 25 mg/kg ip plus 2′-CH3-MPTP, FIG. 3) | DA neuron depletion in the SNpc (TH immunoreactivity) ([3]; SNpc, FIG. 8) | striatal gliosis (GFP signal) ([3]; striatum, FIG. 7)
1 | Cc1ccccc1C1=CCN(C)CC1 [2′-CH3-MPTP, methyl-4(2′-methylphenyl)-1,2,3,6-tetrahydropyridine, reference compound] | significant increase | 36 | – | – | – | – | – | –
2 | [Br-].c1ccc(Cn2cc[n+](Cc3ccccc3)c2)cc1 [DBZIM, 1,3-bisbenzylimidazolium bromide] | – | – | attenuated both green and red fluorescence to the basal levels; also recorded: significantly attenuates the gliosis | reduced the neurotoxicant-induced gliosis to close to the basal level; also recorded: significantly attenuated | no significant change; also recorded: prevented the 2′-CH3-MPTP-induced retinal toxicity | no apparent neurotoxicity | A significant portion of the DA neurons is protected | cut down the gliosis in the striatum to a basal level; also recorded: significantly attenuates the neurotoxicity
